Experiments:
[1] = biological target: T1, rNOSIP (Homo sapiens, UniProt Q9Y314); experiment: Isothermal titration calorimetry (ITC) of rNOSIP with small molecules / 18 mer iNOS peptide (PP2); assay type: binding
T1 construct: made in house; host or cells: E. coli BL21 (DE3)
T1 sequence (Q9Y314 with tags, fused parts or gaps): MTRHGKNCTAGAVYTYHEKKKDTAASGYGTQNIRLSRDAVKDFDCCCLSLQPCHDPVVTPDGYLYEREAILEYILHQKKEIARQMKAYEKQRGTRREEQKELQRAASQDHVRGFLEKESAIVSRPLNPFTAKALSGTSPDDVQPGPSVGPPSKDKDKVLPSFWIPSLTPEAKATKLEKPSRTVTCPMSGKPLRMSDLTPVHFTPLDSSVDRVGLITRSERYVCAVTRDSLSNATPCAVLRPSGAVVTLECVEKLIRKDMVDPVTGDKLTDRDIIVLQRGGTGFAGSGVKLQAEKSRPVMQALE
Experimental: The 18 mer iNOS peptide (PP2) and small molecules were used for physical association of molecules in calorimetric analysis. The molecular association leads to thermodynamics changes such as Gibb's free energy change (ΔG), entropy change (ΔS), enthalpy change (ΔH) and number of binding sites (N) in interacting solution were investigated by isothermal calorimetry MICROCAL PEQ (Malvern) at 25° C. […] The experiment consisted of multiple injections and each injection contained 1.5 μl of binding solution (recombinant NOSIP solution) with 120 second spacing time between subsequent injections. Sequential titrations were carried out and the sample solution was continuously stirred at 270 rpm by the rotating paddle attached to the syringe needle. Multiple injections of NOSIP made into the sample cell containing interacting solution of peptide and small molecules. The titration curves were analyzed using the analysis software provided with the calorimeter.
The 18 mer iNOS peptide (PP2) and five small molecules were used to analyze physical association in calorimetric analysis. The molecular association leads to thermodynamics changes such as Gibb's free energy change (ΔG), entropy change (ΔS), enthalpy change (ΔH) and number of binding sites (N) in interacting solution were investigated by isothermal calorimetry MICROCAL PEQ (Malvern) at 25° C. […] The experiment consisted of multiple injections and each injection contained 1.5 μl of binding solution with 120 second spacing time between subsequent injections. Sequential titrations were carried out and the sample solution was continuously stirred at 270 rpm by the rotating paddle attached to the syringe needle. Multiple injections of NOSIP made into the sample cell containing interacting solution of peptide and small molecules. The titration curves were analyzed using the analysis software provided with the calorimeter.

[2] = biological target: T2, iNOS-NOSIP protein interaction (Homo sapiens, UniProt Q9Y314); experiment: SPR: inhibition of rNOSIP association with immobilized recombinant iNOS by iNOS peptides / small molecules; assay type: binding
T2 construct: made in house; host or cells: E. coli BL21 (DE3)
T2 sequence (Q9Y314 with tags, fused parts or gaps): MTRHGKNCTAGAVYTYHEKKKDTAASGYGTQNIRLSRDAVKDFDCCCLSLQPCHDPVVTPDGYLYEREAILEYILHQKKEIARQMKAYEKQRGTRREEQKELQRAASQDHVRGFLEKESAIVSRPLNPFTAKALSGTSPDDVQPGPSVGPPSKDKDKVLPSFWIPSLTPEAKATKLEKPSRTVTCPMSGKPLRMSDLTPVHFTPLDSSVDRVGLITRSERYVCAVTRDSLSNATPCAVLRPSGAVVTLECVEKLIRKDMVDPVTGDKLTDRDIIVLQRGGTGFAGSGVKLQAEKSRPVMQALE
Experimental: Four different iNOS peptides were synthesized commercially by China peptides and iNOS peptides were used for molecular interaction studies with immobilized recombinant iNOS purified protein. The iNOS peptides mediated inhibition of rNOSIP and riNOS protein association in Bio-Rad XPR 36 surface plasmon resonance biosensor instrument. […] 250 nM of iNOS peptides was used for inhibition assay with immobilized ligand(recombinant iNOS) in SPR analysis. Similar condition and concentration of small molecules were used for inhibition of recombinant protein association with immobilized ligand. […] The rNOSIP protein was incubated with iNOS derived peptide/small molecules for 30 minutes in ice for inhibition assay before the SPR application in our study. The molecular interaction was carried out at 20° C. and kinetic parameters were determined, after fitting the association and dissociation curves to a 1:1 (Langmuir)-binding model. An activated channel without immobilized ligand was used to evaluate nonspecific binding. The response curves were also recorded on control surfaces. Results were calculated after subtraction of the control values using the ProteOn Manager software.
The collected sensorgram data were processed by reference subtraction using double-referencing with the in-line blank buffer. The integrated ProteOn Manager software was used to fit the data with the Langmuir model describing a 1:1 binding stoichiometry. Ka is the association rate constant, Kd is the dissociation rate constant, and KD is the equilibrium dissociation constant, defined by the Kd/Ka ratio for the analytes-ligand binding.
The five small molecules bind with NOSIP and inhibit the association of recombinant NOSIP and recombinant iNOS. The rNOSIP protein was incubated with iNOS derived peptide or small molecules for 30 minutes in ice prior to SPR application. The molecular interaction was carried out at 20° C. and kinetic parameters were determined, after fitting the association and dissociation curves to a 1:1 (Langmuir)-binding model. An activated channel without immobilized ligand (recombinant iNOS) was used to evaluate nonspecific binding. The response curves were also recorded on control surfaces. Results were calculated after subtraction of the control values using the ProteOn Manager software.
The collected sensorgram data were processed by reference subtraction using double-referencing with the in-line blank buffer. The integrated ProteOn
Manager software was used to fit the data with the Langmuir model describing a 1:1 binding stoichiometry. Ka is the association rate constant, Kd is the dissociation rate constant, and KD is the equilibrium dissociation constant, defined by the Kd/Ka ratio for the analytes—ligand binding.

[3] = test system: human PBMCs; experiment: NO levels (Griess) in human PBMCs, small molecules alone or in combination; assay type: cell-based; settings: 0.1 and 0.01 μM, 24 h
Experimental: PBMCs (1 million cells/ml) from healthy individuals' blood was isolated and were treated with or without NOSIP antagonists (either alone or mixture of equimolar concentration of all 5 small molecule antagonists at 0.1 and 0.01 μM) for 30 min in triplicate wells and incubated for 24 h at 37° C. The culture supernatants were analysed by […] for nitrite concentration using Griess reagent, and the NO levels are shown as mean percent increase over untreated control. The panel on the right top of FIG. 10 depict nitrite levels by individual small molecules in human PBMCs. […] Thus a combined mixture of 5 small molecules will be desirable for use in mouse as well as humans.

[4] = ITC 25° C., small molecule/peptide in cell, NOSIP in syringe

ΔG ([1]; ITC 25° C.): -8.70 kcal/mol | ΔH ([1]; ITC 25° C.): -8.54 ± 0.255 kcal/mol | −TΔS ([1]; ITC 25° C.): -0.159 kcal/mol | Kd [1, 4]: 0.42 ± 0.0575 µM | N (Sites) [1, 4]: 1.04 | Fold Change (KD) ([1]; ITC KD relative to iNOS-Peptide2 = 1): 0.766 | kon ([2]; analyte rNOSIP alone or + peptide/small molecule, ligand r iNOS, 20° C., 1:1 Langmuir, read-out: Ka): 0.563 M⁻¹ s⁻¹ | Kd ([2]; analyte rNOSIP alone or + peptide/small molecule, ligand r iNOS, 20° C., Kd/Ka): 870 µM
Structure (SMILES): COc1cc(C)ccc1OCc1nc(C(=O)NCc2n[nH]c3c2CCC3)co1 [MCULE-4640800528, N-({1H,4H,5H,6H-cyclopenta[c]pyrazol-3-yl}methyl)-2[(2-methoxy-4-methylphenoxy)methyl]-1,3-oxazole-4-carboxamide]
SM binding affinity with NOSIP, hierarchy ([1]; ITC, rank order): CC4>CC11>CC6>CC5>CC13>Peptide 2 (iNOS) | inhibition hierarchy of iNOS-NOSIP protein interaction ([2]; SPR, rank order): CC4>CC11>CC6>CC5>CC13>iNOS Peptide 2 | inhibition of binding of NOSIP with iNOS ligand by small molecules ([2]; rNOSIP 250 nM, small molecules 1 uM, SPR (FIG. 4)): inhibit the binding of NOSIP with iNOS ligand | nitric oxide produced, individual small molecules compared [3]: more effective than molecules in human cells

From patent US20240000786A1, “COMPOSITION FOR ENHANCING INTRA-CELLULAR NITRIC OXIDE GENERATION” (INSTITUTE OF LIFE SCIENCES, priority 2020, published 2024)
